Each structure is given as a SMILES string. Active and inactive are the calls of the source. Rule as the data show it: actives have a measured IC50 and inactives only a lower limit.

In the assay the target is Envelope glycoprotein gp160 (Human immunodeficiency virus 1, UniProt Q6QLK5). Nature of the assay: cell-free HIV fusion peptide-binding blockers – biochemical, uHTS, fluorescence dequenching, […] (AID 1986).
Chain of Envelope glycoprotein gp160 (Q6QLK5 whole entry, the tested form may be a part): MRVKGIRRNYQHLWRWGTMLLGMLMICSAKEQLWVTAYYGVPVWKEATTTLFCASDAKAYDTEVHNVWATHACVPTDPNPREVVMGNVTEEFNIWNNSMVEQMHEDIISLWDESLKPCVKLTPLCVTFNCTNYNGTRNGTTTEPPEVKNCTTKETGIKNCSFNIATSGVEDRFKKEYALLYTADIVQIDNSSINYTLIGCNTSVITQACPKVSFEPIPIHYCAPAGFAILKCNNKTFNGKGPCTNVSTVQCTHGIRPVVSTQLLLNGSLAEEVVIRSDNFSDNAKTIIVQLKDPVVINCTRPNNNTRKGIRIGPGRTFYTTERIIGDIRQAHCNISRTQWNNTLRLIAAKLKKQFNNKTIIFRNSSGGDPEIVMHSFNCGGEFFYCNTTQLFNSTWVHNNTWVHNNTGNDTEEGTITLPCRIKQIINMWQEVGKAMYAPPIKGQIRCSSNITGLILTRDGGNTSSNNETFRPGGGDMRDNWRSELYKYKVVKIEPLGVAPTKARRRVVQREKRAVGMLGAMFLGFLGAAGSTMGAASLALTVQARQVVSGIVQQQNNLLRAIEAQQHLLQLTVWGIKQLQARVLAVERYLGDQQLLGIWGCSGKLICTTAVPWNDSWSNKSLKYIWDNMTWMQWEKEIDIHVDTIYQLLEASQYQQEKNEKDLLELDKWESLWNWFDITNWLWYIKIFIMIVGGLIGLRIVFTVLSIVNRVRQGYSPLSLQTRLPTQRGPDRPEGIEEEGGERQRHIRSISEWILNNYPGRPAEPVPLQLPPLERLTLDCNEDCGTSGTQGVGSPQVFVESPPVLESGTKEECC
As a reminder, the IC50 is the concentration at which inhibition is half-maximal. In the case of `O=C(COc1ccc2ccccc2c1)Nc1cccc(C(=O)Nc2ccccc2C(=O)O)c1`, the IC50 was 14.3 µM (active).
In the case of `CCOC(=O)c1sc(N2C(=O)C(O)=C(C(=O)c3ccco3)C2c2ccc([N+](=O)[O-])cc2)nc1C` (stereo not given), the IC50 is 17.6 µM (active).
Regarding `O=C(O)c1ccc(Nc2nc(-c3cc4ccccc4oc3=O)cs2)cc1O`, the IC50 was 11.5 µM (active).
Take `O=C(O)CCN1C(=O)/C(=C\c2cccc(OCC(=O)Nc3ccc(Cl)cc3)c2)SC1=S`: the IC50 is 13.2 µM (active).
`COc1ccccc1OCCOc1ccc(/C=C2\C(=N)N3N=C(S(C)(=O)=O)SC3=NC2=O)cc1`: the IC50 was 33.8 µM (active).

The values above are taken from ChEMBL document CHEMBL1201862, “PubChem BioAssay data set” (2004).
